Among the data in PubChem BioAssay AID463206 (Broad Institute, 2010) are AC50 values, retold here.

The source made the active and inactive calls.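 The calls were made as follows: active = caspase luminescence falls with dose and the half-maximal concentration AC50 from the fitted curve is at or below a set limit; inconclusive = flat fit at 30 to 70% signal loss, or invalid fit; inactive = AC50 above the limit, or signal rises instead.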

As usually defined, the AC50 is the midpoint of the concentration-response curve, whichever way the signal moves.

The subject of the test is INS-1E cytokine-induced caspase-3/7, Caspase-Glo luminescence, 48 h. As to the kind of experiment: suppression of cytokine-driven beta-cell apoptosis – INS-1E rat cells, luminescence, orthogonal assay for beta-cell apoptosis protection project, dose response (AID 463206).
With `O=C(N/N=C/c1cc(Br)cc(Cl)c1O)c1ccc2c(c1)OCO2`, the AC50 is > 26 µM (inactive).
As to `COc1cccc(C(=O)Oc2c(Br)cc(Br)cc2/C=N/NC(=O)c2cc(C)[nH]n2)c1`, the AC50 is > 26 µM (inactive).
Regarding `C=CC(C)(C)c1c(O)c(CC=C(C)C)c(O)c2c(=O)c3ccc(O)c(O)c3oc12`, the AC50 was > 26 µM (inactive).
`O=C(CCSc1nc2ccccc2s1)N/N=C/c1c(O)ccc2ccccc12`: the AC50 is > 26 µM (inactive).
The result for `Cc1nc(C(F)(F)F)c(C(=O)N/N=C(\N)c2ccccn2)s1` reads > 26 µM (inactive); that for `CCS(=O)(=O)c1ncc(Cl)c(C(=O)Nc2ccccc2OC)n1`, > 26 µM (inactive); that for `CNC(=O)c1sc(N2N=C3/C(=C/c4ccccc4)CCCC3C2c2ccccc2)nc1C` (stereo not given), > 26 µM (inactive).
The result for `COc1cccc(N2CCN(c3ncnc4c3[nH]c3ccc(F)cc34)CC2C)c1` (stereo not given) reads > 26 µM (inactive); that for `Cc1cc(C)n(-c2nc(NCCO)c3c4c(sc3n2)CCCC4)n1`, > 26 µM (inactive).
The result for `c1ccc(CNc2c(-c3cccc(SC4CCCCC4)c3)nc3ccccn23)cc1` reads > 26 µM (inactive); that for `Cc1ccccc1-[n+]1c(-c2ccccc2)cc(-c2ccccc2)cc1-c1ccccc1`, > 26 µM (inactive); that for `Clc1ccc(OCCN2CCN(c3ncnc4sccc34)CC2)cc1`, > 26 µM (inactive).
As to `CC(NC(=O)c1cc(COc2ccc3ncccc3c2)on1)c1ccc(F)cc1` (stereo not given), the AC50 is > 26 µM (inactive).
In the case of `C/C(=N\NC(=O)c1ccc(F)cc1)c1ccccn1`, the AC50 is > 26 µM (inactive).
Turning to `COc1ccc(O)c(/C=N/NC(=O)c2ccc(OCc3cccc(Br)c3)cc2)c1`, the AC50 was > 26 µM (inactive).
For the compound `O=C1C(=O)c2ccc(-c3ccccc3)cc2-c2ccccc21`, the AC50 is > 26 µM (inactive).
Take `Cc1cc2cc(CN3C(=O)c4ccccc4C3=O)ccc2n1C`: the AC50 is > 26 µM (inactive).
Turning to `CCn1c(=O)c(C(=O)Nc2ccccn2)c(O)c2ccccc21`, the AC50 is > 26 µM (inactive).
For `Cc1ccc(-n2c(-c3ccccc3)c[n+]3c2CCC3)cc1`, the AC50 is > 26 µM (inactive).
For `Oc1ccc(Br)cc1CNc1cccc2cccnc12`, the AC50 was > 26 µM (inactive).
`N#Cc1ccc(-c2csc(NNC(=O)c3ccccc3)n2)cc1`: the AC50 is > 26 µM (inactive).
The result for `O=C(CSC1c2ccccc2-c2ccccc21)N/N=C/c1ccccc1O` reads > 26 µM (inactive); that for `Cc1ccc(-c2nc(N/N=C/c3cccnc3)c3ccccc3n2)cc1`, > 26 µM (inactive).
`CCOc1cc(C)c(S(=O)(=O)Nc2ccc3cn[nH]c3c2)cc1C`: the AC50 was > 12 µM (inactive).
Take `COc1ccccc1NC1=C(N2CCCCC2)C(=O)c2ccccc2C1=O`: the AC50 is > 26 µM (inactive).
The result for `Cn1cc(/C=C/c2cc[n+](C)cc2)c2cc(Cl)ccc21` reads > 26 µM (inactive).
Take `Cc1nc2ccccn2c1C(=O)/C=C/c1cccc([N+](=O)[O-])c1`: the AC50 is > 26 µM (inactive).
Turning to `COc1ccc(-c2csc(NC(=O)c3ccccc3NS(=O)(=O)c3ccc(F)c(F)c3)n2)cc1`, the AC50 is > 26 µM (inactive).
On to `O=C(N/N=C\c1cc(Br)ccc1O)c1ccc(S(=O)(=O)N2CCCCC2)cc1`, for which the AC50 was > 26 µM (inactive).
Consider `Cc1csc2ncnc(N3CCN(S(=O)(=O)c4cccc(C(F)(F)F)c4)CC3)c12`, for which the AC50 is > 26 µM (inactive).
As to `Cc1ccc(-c2ccc(/C=C3\C(=O)ON=C3c3ccccc3)o2)c([N+](=O)[O-])c1`, the AC50 was > 26 µM (inactive).
As to `O=C1/C(=C\c2cccnc2)CN(Cc2ccccc2)C/C1=C\c1cccnc1`, the AC50 was > 26 µM (inactive).
Turning to `O=[N+]([O-])c1ccc(/C=N/n2cnc3ccccc32)s1`, the AC50 is > 26 µM (inactive).
The result for `Cc1cnc(NC(=O)CN2CCN(c3ccccn3)CC2)s1` reads > 26 µM (inactive); that for `c1ccc(-c2nnc(-c3ccccn3)nc2NC2CCCCC2)cc1`, > 26 µM (inactive); that for `O=C(Nc1cccc(NC(=O)c2cc([N+](=O)[O-])ccc2Cl)n1)c1cc([N+](=O)[O-])ccc1Cl`, 3.73 µM.
In the case of `COc1cccc(/C=N/NC(=O)c2ccc(-c3ccccc3)cc2)c1O`, the AC50 is > 26 µM (inactive).
In the case of `Cc1ccnc2c1ccc1c(C)ccnc12`, the AC50 is > 26 µM (inactive).
Consider `CC1=C(CC(=O)c2ccc(Cl)cc2)C(=O)c2ccccc2C1=O`, for which the AC50 is > 26 µM (inactive).
`COc1cccc(/C=N/Nc2nc3ccccc3[nH]2)c1O`: the AC50 was > 26 µM (inactive).
As to `Cc1ccc(S(=O)(=O)NCc2ccncc2)c(C)c1C`, the AC50 is > 26 µM (inactive).
On to `CN1/C(=C\C(=O)c2ccco2)C(C)(C)c2ccccc21`, for which the AC50 is > 26 µM (inactive).
Take `COc1ccc(Nc2ccc3c(c2)=NC2(CCCCC2)[N+]=3[O-])cc1`: the AC50 is > 26 µM (inactive).
The result for `C=CCc1cccc(/C=N/NC(=O)c2ccccc2OC)c1O` reads > 26 µM (inactive); that for `COc1cnc(-c2ccccn2)nc1Sc1ccc(C)cc1`, > 26 µM (inactive); that for `CN(C)S(=O)(=O)c1cccc(NC(=S)N/N=C/c2cc(Br)ccc2O)c1`, > 26 µM (inactive).
The result for `COc1ccc2nc(C)cc(N/N=C/c3ccccc3)c2c1` reads 10.1 µM; that for `O=[N+]([O-])c1ccc(NC(=S)NCCc2ccc(Cl)cc2)cc1`, > 26 µM (inactive).
With `COC(=O)c1ccc(COc2ccccc2/C=C(\C#N)C(=O)Nc2c(C)cccc2C)cc1`, the AC50 was > 26 µM (inactive).
In the case of `C=CCc1cccc(/C=N/NC(=O)c2ccc3nc[nH]c3c2)c1O`, the AC50 is > 26 µM (inactive).
For `Clc1ccc(CSc2ccc(-c3ccccn3)nn2)cc1`, the AC50 was > 26 µM (inactive).
Regarding `CN1C2CCC1/C(=C/c1ccccn1)C(=O)/C2=C\c1ccccn1`, the AC50 is > 26 µM (inactive).
On to `O=C(Nc1ccc(Cl)cc1)Nc1ccc(Cl)c(Cl)c1`, for which the AC50 was > 26 µM (inactive).
Consider `COc1ccc2nc(/C(C#N)=C\c3ccc(Oc4ccc([N+](=O)[O-])cn4)cc3)[nH]c2c1`, for which the AC50 was > 26 µM (inactive).
Turning to `O=C(Cc1ccc(Cl)cc1)c1c[nH]c(C(=O)NCc2cccnc2)c1`, the AC50 was > 26 µM (inactive).
In the case of `Cc1cc(C(C)(C)C)cc(C)c1Cn1c2[n+](c3ccc(C(F)(F)F)cc31)CCCCC2`, the AC50 was > 26 µM (inactive).
`COc1ccc(-c2cn(Cc3ccc(C(=O)c4ccccc4)cc3)nn2)cc1`: the AC50 is > 26 µM (inactive).
The result for `Cc1ccc(-c2sc(-c3ccccc3)nc2CC(=O)Nc2ccccc2F)cc1` reads > 26 µM (inactive); that for `N#C/C(=C\c1ccc([N+](=O)[O-])o1)c1nc2ccccc2[nH]1`, > 26 µM (inactive).
The result for `COc1ccc(/C=N/Nc2cc(C)nc(-n3nc(C)cc3C)n2)cc1` reads > 26 µM (inactive).
The result for `CC(C)[C@H]1C(=O)O[C@H](C(C)C)C(=O)N(C)[C@@H](C(C)C)C(=O)O[C@H](C(C)C)C(=O)N(C)[C@@H](C(C)C)C(=O)O[C@H](C(C)C)C(=O)N1C` reads > 26 µM (inactive); that for `N#CC(c1cccc(Cl)c1)c1ccc2c(C(F)(F)F)cc(C(F)(F)F)nc2n1` (stereo not given), > 26 µM (inactive).
Turning to `S=C(Nc1ccc(Nc2ccccc2)cc1)Nc1ccccn1`, the AC50 was > 26 µM (inactive).
As for `COc1ccc(CN(C)C(=O)c2ccc(NS(=O)(=O)c3ccc(F)cc3)cc2)c(OC)c1OC`, the AC50 is > 26 µM (inactive).
The result for `Cc1cc(C)c2nc(NNC(=O)c3ccc(S(=O)(=O)N4CC(C)CC(C)C4)cc3)sc2c1` (stereo not given) reads > 26 µM (inactive); that for `O=C(N/N=C/c1ccccc1O)c1cccc(C(F)(F)F)c1`, > 26 µM (inactive).
Turning to `CC1=C(C)/C(=N\OS(=O)(=O)c2ccc(C)cc2)C=CC1=O`, the AC50 is > 26 µM (inactive).
The result for `CCOC(=O)C(C(C)=O)c1c(Br)c(O)c(O)c2c(C(=O)c3ccc(C)cc3)coc12` (stereo not given) reads > 26 µM (inactive).
For `Cn1nc([N+](=O)[O-])nc1Sc1cccc2cccnc12`, the AC50 is > 26 µM (inactive).
In the case of `Cc1ccc(NC(=O)C2CCN(S(=O)(=O)c3ccc4c(c3)NC(=O)C(C)S4)CC2)cc1Cl` (stereo not given), the AC50 is > 26 µM (inactive).
Take `CC1CCc2c(sc3nc(C4CC4)nc(N4CCN(C(=O)c5ccco5)CC4)c23)C1` (stereo not given): the AC50 was > 26 µM (inactive).
For the compound `Cc1ccc(Oc2nc(-c3ccccn3)nc3ccccc23)cc1`, the AC50 was > 26 µM (inactive).
As for `O=C(c1ccco1)c1coc2c1cc(O)c1ccccc12`, the AC50 is > 26 µM (inactive).
On to `N#CC(c1ccc(Cl)cc1)c1ccc2c(C(F)(F)F)cc(C(F)(F)F)nc2n1` (stereo not given), for which the AC50 was > 26 µM (inactive).
As to `Clc1cc2cccnc2c2ncccc12`, the AC50 was > 26 µM (inactive).
In the case of `O=C(N/N=C/c1cccnc1)c1ccccc1NS(=O)(=O)c1cccs1`, the AC50 was > 26 µM (inactive).
Regarding `COc1ccc(-c2csc(NC(=O)C3CCN(c4ncnc5sc(C)c(C)c45)CC3)n2)cc1OC`, the AC50 is > 26 µM (inactive).
The result for `Cc1nn(-c2ccccc2)c(C)c1NC(=O)COc1ccc(Br)cc1Cl` reads > 26 µM (inactive); that for `c1ccc(/N=C2\N=C(Nc3ccccn3)c3ccccc32)nc1`, > 26 µM (inactive); that for `Cc1ccccc1OC1C(=O)N(Cc2ccc3c(c2)OCO3)C1c1sccc1C` (stereo not given), > 26 µM (inactive).
Consider `CCC(=O)NC(c1ccc(C)cc1)c1cc(Cl)c2cccnc2c1O` (stereo not given), for which the AC50 is > 26 µM (inactive).
As to `O=[N+]([O-])c1cc(CN2CCN(c3ccccc3)CC2)c(O)c2ncccc12`, the AC50 was > 26 µM (inactive).
As for `Nc1c(Cl)ncnc1N/N=C/c1ccc2ccccc2n1`, the AC50 is > 26 µM (inactive).
In the case of `CC(CC(=O)N1CCN(c2cccc(Cl)c2)CC1)S(=O)(=O)c1ccc2c(c1)NC(=O)CO2` (stereo not given), the AC50 was > 26 µM (inactive).
`Cc1ccc(NC2=C/C(=N/S(=O)(=O)c3cccs3)c3ccccc3C2=O)cc1C`: the AC50 was > 26 µM (inactive).
